Source: PubChem BioAssay AID1963856 (Molecular Pharmacology Branch, DTP, NCI, 2024)
pIC50: −log10 of the molar value.

Tested on: LG0567-F671-PDC KRAS tumor spheroid viability
Test: Anticancer human tumor LG0567-F671-PDC patient-derived lung adenocarcinoma cell line growth inhibition [KRAS2]
Conditions: spheroids with HUVEC and MSC; for pIC50: curve of first compound; for viability, T/C: stronger effect = lower value
From the text: Multicellular complex tumor spheroid response to RAS pathway inhibitors in combination with a targeted agents in patient-derived cell lines with oncogenic KRAS variants from multiple cancer types
A high-throughput screen of multi-cell type tumor spheroids was designed to identify active combinations of targeted small molecules and KRAS pathway inhibitors. Complex spheroids include a stromal component modeled by human endothelial cells (HUVEC) and fibroblasts modeled by human mesenchymal stem cells (MSCs). The concentration ranges selected for each drug and investigational agent were based upon clinically achievable concentrations if the clinical Cmax of the agent was known.
Compounds. The drugs and investigational agents: BI-3406 (NSC825286), BAY-293 (NSC824723), batoprotafib (TNO155; NSC825523), sotorasib (AMG 510; NSC818433), MRTX1257 (NSC819558), elimusertib (BAY 1895344; NSC800525), molibresib (GSK525762; NSC774829), temuterkib (LY3214996; NSC803410), venetoclax (NSC766270), alisertib (NSC759677), olaparib (NSC753686), talazoparib (NSC767125), erdafitinib (NSC781556), ipatasertib (NSC767898), cabozantinib (NSC761068), nintedanib (NSC756659), abemaciclib (NSC768073), docetaxel (NSC628503), trametinib (NSC758246), and sapanisertib (NSC764658) were obtained from the National Cancer Institute (NCI) Developmental Therapeutics Program Chemical Repository. The FDA-approved anticancer drug set is available from the Developmental Therapeutics Program. […] The stock solutions were prepared in dimethyl sulfoxide (DMSO, Sigma-Aldrich, St. Louis, MO, cat. D2650) at 800-fold the tested concentration and stored at -70 degrees C prior to their use. All drugs and investigational agents were tested over a range starting from a high concentration at or near the clinical Cmax and decreasing in half-log increments. If the clinical Cmax for an agent had not been determined, the highest concentration tested was 10 microM.
Cell Culture. All cells were maintained in an incubator at 37 degrees C and 5% CO2 with 95% humidity. The PDC lines were cultured according to standard operating procedures established by the NCI PDMR (https://pdmr.cancer.gov/sops/default.htm). Briefly, all PDCs were thawed and cultured in Matrigel-coated flasks prepared with a working solution of 1X Ham's F-12 nutrient mix, without supplementation (Invitrogen, Waltham, MA, cat. 11765054), 100 U/mL penicillin-streptomycin (Invitrogen, cat. 15140122), and 2.5% Matrigel (Corning Inc., Corning, NY, cat. 354248) for the first three passages. All PDCs were cultured in complete DMEM/F-12 media containing advanced DMEM/F-12 (Invitrogen, cat. 12634028), 4.9% defined fetal bovine serum, heat inactivated (HyClone Laboratories Inc., Logan, UT, cat. SH30070.03HI), 389 ng/mL hydrocortisone (Sigma-Aldrich, cat. H4001), 9.7 ng/mL human EGF recombinant protein (Invitrogen, cat. PHG0313), 23.4 microg/mL adenine (Sigma-Aldrich, cat. A2786), 97.3 U/mL penicillin-streptomycin (Invitrogen, cat. 15140122), 1.9 mM L-glutamine (Invitrogen, cat. 25030081), and 9.7 microM Y-27632 dihydrochloride (Tocris Bioscience, Bristol, United Kingdom, cat. 1254). The PDCs were cultured in complete DMEM/F12 media without 9.7 microM Y-27632 dihydrochloride for at least two passages prior to the screen. The established cell line HOP-62 was cultured in RPMI 1640 medium, HEPES (Invitrogen, cat. 22400105) with 10% defined fetal bovine serum (HyClone Laboratories Inc., cat. SH30070.03) and 2 mM L-glutamine (Invitrogen, cat. 25030081). The pooled donor HUVEC were cultured in endothelial cell growth medium 2 (PromoCell, Heidelberg, Germany, cat. C-22011) and the hMSC were cultured in mesenchymal stem cell growth medium 2 (PromoCell, cat. C-28009). For all experiments, HUVEC and hMSC were used at passages </=5, while the malignant cell lines were used at passages </=15. […]

[1] = second compound 0.1 µM, first compound 0.0316 µM
[2] = second compound 0.1 µM, first compound 0.1 µM
[3] = second compound 0.1 µM, first compound 0.316 µM
[4] = second compound 0.1 µM, first compound 1 µM
[5] = second compound 0.1 µM, first compound 3.16 µM
[6] = second compound 0.1 µM, first compound 10 µM
[7] = second compound 0.316 µM, first compound 0.0316 µM
[8] = second compound 0.316 µM, first compound 0.1 µM
[9] = second compound 0.316 µM, first compound 0.316 µM
[10] = second compound 0.316 µM, first compound 1 µM
[11] = second compound 0.316 µM, first compound 3.16 µM
[12] = second compound 0.316 µM, first compound 10 µM
[13] = second compound 1 µM, first compound 0.0316 µM
[14] = second compound 1 µM, first compound 0.1 µM
[15] = second compound 1 µM, first compound 0.316 µM
[16] = second compound 1 µM, first compound 1 µM
[17] = second compound 1 µM, first compound 3.16 µM
[18] = second compound 1 µM, first compound 10 µM
[19] = second compound 3.16 µM, first compound 0.0316 µM
[20] = second compound 3.16 µM, first compound 0.1 µM
[21] = second compound 3.16 µM, first compound 0.316 µM
[22] = second compound 3.16 µM, first compound 1 µM
[23] = second compound 3.16 µM, first compound 3.16 µM
[24] = second compound 3.16 µM, first compound 10 µM
[25] = second compound 10 µM, first compound 0.0316 µM
[26] = second compound 10 µM, first compound 0.1 µM
[27] = second compound 10 µM, first compound 0.316 µM
[28] = second compound 10 µM, first compound 1 µM
[29] = second compound 10 µM, first compound 3.16 µM
[30] = second compound 10 µM, first compound 10 µM
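Note: drug exposure lasted seven days after spheroids formed for three days.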
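Throughout, for viability, T/C: 100% = DMSO vehicle control viability.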

Row | SMILES | pIC50 (second compound 0.1 µM) | pIC50 (second compound 0.316 µM) | pIC50 (second compound 1 µM) | pIC50 (second compound 3.16 µM) | viability, T/C [1] | viability, T/C [2] | viability, T/C [3] | viability, T/C [4] | viability, T/C [5] | viability, T/C [6] | viability, T/C [7] | viability, T/C [8] | viability, T/C [9] | viability, T/C [10] | viability, T/C [11] | viability, T/C [12] | viability, T/C [13] | viability, T/C [14] | viability, T/C [15] | viability, T/C [16] | further results
1 | COc1cc(Nc2ncc3c(n2)-c2ccc(Cl)cc2C(c2c(F)cccc2OC)=NC3)ccc1C(=O)O + COc1cc2nc(C)nc(NC(C)c3cc(N)cc(C(F)(F)F)c3)c2cc1OC1CCOC1 | 5.61 | > 7.50 | 6.77 | > 7.50 | 64.3% | 59.9% | 60.9% | 55.1% | 48.9% | 36% | 46.6% | 50.2% | 43.3% | 47.1% | 36% | 28.2% | 48.3% | 53.7% | 49.5% | 44.5% | pIC50 (second compound 10 µM): > 7.50; viability, T/C [17]: 37.9%; viability, T/C [18]: 28.8%; viability, T/C [19]: 40%; viability, T/C [20]: 44.4%; viability, T/C [21]: 46.1%; viability, T/C [22]: 36.9%; viability, T/C [23]: 32.7%; viability, T/C [24]: 23.6%; viability, T/C [25]: 40.2%; viability, T/C [26]: 37.8%; viability, T/C [27]: 37.7%; viability, T/C [28]: 33.1%; viability, T/C [29]: 27.6%; viability, T/C [30]: 18.9%
2 | CC1(C)CCC(CN2CCN(c3ccc(C(=O)NS(=O)(=O)c4ccc(NCC5CCOCC5)c([N+](=O)[O-])c4)c(Oc4cnc5[nH]ccc5c4)c3)CC2)=C(c2ccc(Cl)cc2)C1 + C=CC(=O)N1CCN(c2nc(OCC3CCCN3C)nc3c2CCN(c2cccc4cccc(C)c24)C3)CC1CC#N | > 7.50 | > 7.50 | > 7.50 | > 7.50 | 30.2% | 36.3% | 29.7% | 28.7% | 10.7% | 5.62% | 34% | 32.6% | 32% | 27.7% | 6.23% | 2.16% | 34.2% | 33.5% | 33.4% | 31.9% | pIC50 (second compound 0.0316 µM): > 7.50; viability, T/C (second compound 0.0316 µM, first compound 0.0316 µM): 31.1%; viability, T/C (second compound 0.0316 µM, first compound 0.1 µM): 37.4%; viability, T/C (second compound 0.0316 µM, first compound 0.316 µM): 35%; viability, T/C (second compound 0.0316 µM, first compound 1 µM): 39.5%; viability, T/C (second compound 0.0316 µM, first compound 3.16 µM): 12.7%; viability, T/C (second compound 0.0316 µM, first compound 10 µM): 5.63%; viability, T/C [17]: 2.97%; viability, T/C [18]: 0.47%; viability, T/C [19]: 21.8%; viability, T/C [20]: 16.1%; viability, T/C [21]: 8.41%; viability, T/C [22]: 0.74%; viability, T/C [23]: 0.13%; viability, T/C [24]: 0.89%
3 | CC(=O)Nc1cccc(-n2c(=O)n(C3CC3)c(=O)c3c(Nc4ccc(I)cc4F)n(C)c(=O)c(C)c32)c1 | – | – | – | – | – | – | – | – | – | – | – | – | – | – | – | – | – | – | – | – | viability, T/C (compound 0.0001 µM): 80.8% [middle of 5 runs]; viability, T/C (compound 0.000316 µM): 63.3% [middle of 5 runs]; viability, T/C (compound 0.001 µM): 55.2% [middle of 5 runs]; viability, T/C (compound 0.00316 µM): 50.8% [middle of 5 runs]; viability, T/C (compound 0.01 µM): 38.5% [middle of 5 runs]; viability, T/C (compound 0.0316 µM): 15.6% [middle of 5 runs]; IC50 (curve of compound): 2.56 nM [middle of 5 runs]
4 | COc1cc2nccc(Oc3ccc(NC(=O)C4(C(=O)Nc5ccc(F)cc5)CC4)cc3)c2cc1OC + CC1OCC2(CCN(c3cnc(Sc4ccnc(N)c4Cl)c(N)n3)CC2)C1N | > 7.50 | > 7.50 | > 7.50 | > 7.50 | 54% | 50.4% | 33.3% | 31.5% | 30.3% | 88.4% | 33% | 30.9% | 26.6% | 20.9% | 13.3% | 69.7% | 25.7% | 22.8% | 18.4% | 13.8% | pIC50 (second compound 10 µM): > 7.50; viability, T/C [17]: 9.19%; viability, T/C [18]: 43.3%; viability, T/C [19]: 19.6%; viability, T/C [20]: 15.2%; viability, T/C [21]: 8.47%; viability, T/C [22]: 6.57%; viability, T/C [23]: 6.28%; viability, T/C [24]: 25.8%; viability, T/C [25]: 13.1%; viability, T/C [26]: 9.16%; viability, T/C [27]: 8.96%; viability, T/C [28]: 6.33%; viability, T/C [29]: 3.72%; viability, T/C [30]: 23.3%
